Measured values as given in ChEMBL document CHEMBL1138903, “Secondary amides of sulfonylated 3-amidinophenylalanine. New potent and selective inhibitors of matriptase” (J Med Chem, 2006).

Tests used:
[1] = molecular target: T1, Suppressor of tumorigenicity 14 protein (Homo sapiens, UniProt Q9Y5Y6)
T1 sequence (Q9Y5Y6 whole entry): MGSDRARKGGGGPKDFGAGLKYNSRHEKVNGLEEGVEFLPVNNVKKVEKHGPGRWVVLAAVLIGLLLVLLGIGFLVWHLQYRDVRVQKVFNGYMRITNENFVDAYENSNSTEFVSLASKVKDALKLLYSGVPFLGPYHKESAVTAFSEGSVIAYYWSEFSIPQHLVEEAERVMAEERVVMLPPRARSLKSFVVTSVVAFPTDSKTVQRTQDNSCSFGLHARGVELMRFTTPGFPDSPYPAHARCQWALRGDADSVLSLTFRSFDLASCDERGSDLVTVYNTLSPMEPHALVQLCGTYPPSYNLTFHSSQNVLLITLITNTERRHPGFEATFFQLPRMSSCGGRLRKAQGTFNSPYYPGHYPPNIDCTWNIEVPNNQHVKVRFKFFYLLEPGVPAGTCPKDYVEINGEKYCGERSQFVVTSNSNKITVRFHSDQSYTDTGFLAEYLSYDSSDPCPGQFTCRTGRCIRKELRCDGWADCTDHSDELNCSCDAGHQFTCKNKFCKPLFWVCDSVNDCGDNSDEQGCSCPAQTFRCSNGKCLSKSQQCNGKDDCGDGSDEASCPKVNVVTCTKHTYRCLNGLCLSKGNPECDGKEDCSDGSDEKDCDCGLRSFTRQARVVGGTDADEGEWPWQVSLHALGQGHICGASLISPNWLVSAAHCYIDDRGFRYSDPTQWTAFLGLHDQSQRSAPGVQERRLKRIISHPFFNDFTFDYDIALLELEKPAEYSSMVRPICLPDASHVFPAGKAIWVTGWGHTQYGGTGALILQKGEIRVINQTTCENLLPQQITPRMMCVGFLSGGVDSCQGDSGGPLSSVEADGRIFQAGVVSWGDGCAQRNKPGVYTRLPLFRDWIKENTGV

[2] = molecular target: T2, Prothrombin (Homo sapiens, UniProt P00734); settings: Blood
[3] = molecular target: Urokinase-type plasminogen activator (Homo sapiens, UniProt P00749); assay: Inhibition of uPA
[4] = Anticoagulant activity in blood by aPTT assay; type: functional, Homo sapiens
[5] = molecular target: Coagulation factor VII/tissue factor (Homo sapiens) (UniProt P08709+P13726); settings: Blood
Description: Anticoagulant activity in blood by PT assay

[6] = molecular target: Coagulation factor X (Homo sapiens, UniProt P00742); assay: Inhibition of f10a
[7] = molecular target: T2, Prothrombin; assay: Inhibition of thrombin
[8] = molecular target: Plasminogen (Homo sapiens, UniProt P00747); assay: Inhibition of plasmin
[9] = molecular target: T1, Suppressor of tumorigenicity 14 protein; assay: Reduction of matriptase-catalyzed pro-HGF to HGF processing; type: functional
[10] = test system: PC-3; assay: Reduction of dissemination into thorax in nude mouse xenografted with PC3 cell line at 5 mg/kg, ip; type: functional; design: scale not given: the % may be the effect or the level left; settings: route intraperitoneal
[11] = test system: PC-3; assay: Reduction of median primary tumor growth of PC3 cell line xenografted in nude mouse at 5 mg/kg, ip; type: functional, Homo sapiens; design: scale not given: the % may be the effect or the level left; settings: route intraperitoneal

Sequence of Plasminogen (P00747 97-580 limits assumed): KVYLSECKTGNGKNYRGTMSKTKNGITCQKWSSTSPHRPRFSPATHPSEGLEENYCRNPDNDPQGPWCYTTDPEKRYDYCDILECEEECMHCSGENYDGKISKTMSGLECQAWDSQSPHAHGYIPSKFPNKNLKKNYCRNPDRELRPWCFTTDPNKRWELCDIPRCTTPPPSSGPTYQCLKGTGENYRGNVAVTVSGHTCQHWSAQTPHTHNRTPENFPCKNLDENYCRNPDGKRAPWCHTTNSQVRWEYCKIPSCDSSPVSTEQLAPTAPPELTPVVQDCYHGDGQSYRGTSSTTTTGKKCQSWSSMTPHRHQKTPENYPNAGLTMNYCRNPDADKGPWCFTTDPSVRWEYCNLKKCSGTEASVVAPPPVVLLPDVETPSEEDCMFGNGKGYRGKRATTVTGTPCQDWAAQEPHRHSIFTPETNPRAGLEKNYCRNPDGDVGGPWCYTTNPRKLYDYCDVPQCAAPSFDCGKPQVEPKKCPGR
Sequence of Plasminogen (P00747 581-810 limits assumed): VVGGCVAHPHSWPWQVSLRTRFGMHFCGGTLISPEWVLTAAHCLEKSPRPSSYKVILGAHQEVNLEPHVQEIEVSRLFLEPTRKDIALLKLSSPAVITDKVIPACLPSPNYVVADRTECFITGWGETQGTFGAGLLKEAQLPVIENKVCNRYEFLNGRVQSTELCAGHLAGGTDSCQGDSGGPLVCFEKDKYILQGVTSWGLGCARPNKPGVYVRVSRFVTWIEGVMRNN
Sequence of Coagulation factor X (P00742 41-179 limits assumed): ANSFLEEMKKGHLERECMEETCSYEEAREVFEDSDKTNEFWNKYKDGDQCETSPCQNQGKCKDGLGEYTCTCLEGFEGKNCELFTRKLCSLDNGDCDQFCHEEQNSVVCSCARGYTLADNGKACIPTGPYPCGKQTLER
Sequence of Coagulation factor X (P00742 235-488 limits assumed): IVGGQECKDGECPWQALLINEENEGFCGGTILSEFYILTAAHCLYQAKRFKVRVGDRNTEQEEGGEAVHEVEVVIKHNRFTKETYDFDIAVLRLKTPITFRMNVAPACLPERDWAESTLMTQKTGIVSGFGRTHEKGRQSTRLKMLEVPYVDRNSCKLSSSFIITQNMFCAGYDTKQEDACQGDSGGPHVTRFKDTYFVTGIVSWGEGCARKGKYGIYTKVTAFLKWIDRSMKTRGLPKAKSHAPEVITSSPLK

Compound | Ki [1] [µM] | IC200 [2] [µM] | Ki [3] [µM] | IC200 [5] [µM] | Ki [6] [µM] | Ki [7] [µM] | Ki [8] [µM] | IC50 [9] [µM] | IC200 [4] [µM] | Activity [10] [%] | Activity [11] [%]
N=C(N)c1cccc(C[C@H](NS(=O)(=O)c2cccc(NC(=O)CCN)c2)C(=O)N2CCC(CCCN=C(N)N)CC2)c1 | 0.0015 | > 10 | 1.8 | > 10 | 13 | 4 | 2.8 |  | >10 |  | 
N=C(N)c1cccc(C[C@H](NS(=O)(=O)c2ccc(C3CCCCC3)cc2)C(=O)N2CCN(C(=N)N)CC2)c1 | 0.026 |  | 8.2 |  | 1.3 | 1.7 | 3.1 | 3 |  |  | 
CC(C)c1cc(C(C)C)c(S(=O)(=O)NC(Cc2cccc(C(=N)N)c2)C(=O)N2CCN(C(=O)CN)CC2)c(C(C)C)c1 (racemic) | 0.69 |  | 8.9 |  | 10.5 | 0.2 | 3.4 |  |  |  | 
N=C(N)NCCC1CCN(C(=O)[C@H](Cc2cccc(C(=N)N)c2)NS(=O)(=O)c2ccc(C3CCCCC3)cc2)CC1 | 0.088 |  | 1.9 |  | 1.8 | 0.051 | 2 |  |  |  | 
N=C(N)c1cccc(C[C@H](NS(=O)(=O)c2cccc(NC(=O)CCN)c2)C(=O)N2CCC(CCN)CC2)c1 | 0.0066 | > 10 | 3.6 | > 10 | 21 | 27 | 2.4 |  | >10 | 33 | 40
Cc1c(C)c(S(=O)(=O)N[C@@H](Cc2cccc(C(=N)N)c2)C(=O)N2CCN(C(=O)CCN=C(N)N)CC2)c(C)c2c1OC(C)(C)C2 | 0.73 |  | 25 |  | > 1000 | 3 | 10.2 |  |  |  | 
N=C(N)c1cccc(C[C@H](NS(=O)(=O)c2cccc(NC(=O)CCN)c2)C(=O)N2CCC(CCCN)CC2)c1 | 0.005 |  | 1.5 |  | 15 | 13 | 2.7 |  |  |  | 
N=C(N)c1cccc(C[C@H](NS(=O)(=O)c2cccc3ccccc23)C(=O)N2CCC(CCN=C(N)N)CC2)c1 | 0.072 |  | 2.3 |  | 13 | 0.19 | 1.7 |  |  |  | 
N=C(N)NCCC1CCN(C(=O)[C@H](Cc2cccc(C(=N)N)c2)NS(=O)(=O)c2ccc(Oc3ccccc3)cc2)CC1 | 0.038 |  | 2.3 |  | 1 | 0.21 | 0.76 |  |  |  | 
CCC(C)(C)c1ccc(S(=O)(=O)N[C@@H](Cc2cccc(C(=N)N)c2)C(=O)N2CCN(C(=O)CCN=C(N)N)CC2)cc1 | 0.2 |  | 18 |  | 8.3 | 0.26 | 2.5 |  |  |  | 
N=C(N)NCCC1CCN(C(=O)[C@H](Cc2cccc(C(=N)N)c2)NS(=O)(=O)c2ccc(Oc3ccccc3)nc2)CC1 | 0.013 | 0.27 | 3.4 | 1.6 | 2.2 | 0.099 | 1.4 |  | 1.5 |  | 

Stronger by Ki [3], values ahead:

Ki [1] [µM] | IC200 [2] [µM] | Ki [3] [µM] | IC200 [5] [µM] | Ki [6] [µM] | Ki [7] [µM] | Ki [8] [µM] | IC50 [9] [µM] | Compound | IC200 [4] [µM] | Activity [10] [%] | Activity [11] [%]
 | 0.32 | 1.3 | 3.8 | 27 | 0.11 | 20 |  | N=C(N)NCCC1CCN(C(=O)[C@H](Cc2cccc(C(=N)N)c2)NS(=O)(=O)c2ccc3ccccc3c2)CC1 | 2.7 | 53 | 17
0.0042 |  | 1.2 |  | 2 | 4 | 1.8 |  | N=C(N)NCCC(=O)Nc1cccc(S(=O)(=O)N[C@@H](Cc2cccc(C(=N)N)c2)C(=O)N2CCC(CCNC(=N)N)CC2)c1 |  |  | 
0.065 |  | 0.81 |  | 1.2 | 0.62 | 0.44 |  | CC(C)c1cc(C(C)C)c(S(=O)(=O)N[C@@H](Cc2cccc(C(=N)N)c2)C(=O)N2CCCN(C(=O)CCN=C(N)N)CC2)c(C(C)C)c1 |  |  | 
0.14 |  | 0.62 |  | 5 | 20 | 1.8 |  | CC(C)c1cc(C(C)C)c(S(=O)(=O)N[C@@H](Cc2cccc(C(=N)N)c2)C(=O)N2CCC(C(=O)NCCN=C(N)N)CC2)c(C(C)C)c1 |  |  | 
0.089 |  | 0.32 |  | 3.2 | 0.3 | 1 |  | CC(C)c1cc(C(C)C)c(S(=O)(=O)N[C@@H](Cc2cccc(C(=N)N)c2)C(=O)N2CCC(CCN=C(N)N)CC2)c(C(C)C)c1 |  |  | 
0.061 |  | 0.26 |  | 2.8 | 4.2 | 0.88 |  | CC(C)c1cc(C(C)C)c(S(=O)(=O)N[C@@H](Cc2cccc(C(=N)N)c2)C(=O)N2CCN(C(=O)CCCN=C(N)N)CC2)c(C(C)C)c1 |  |  | 
